According to article PMC6373673, “Purified PEGylated human glucagon-like peptide-2 reduces the severity of irradiation-induced acute radiation enteritis in rats” (Journal of Radiation Research, 2018):

How the values were obtained:
[1] = test system: irradiation-induced acute radiation enteritis in rats; assay: Clinical, gross, histological and morphometric changes of the small intestine in irradiation-induced acute radiation enteritis; type: in vivo, Sprague Dawley (SD) rats; parameters: key to Shortening of villi (histologic) / Architectural disarray (histologic) / Diarrhea / Abdominal distention / Intestinal dilatation (gross) / Mucosal ulceration (gross) / Edema (gross): (–) = absent; (+) = present; Number of villi: unit not given here; details: SD rats, 8 Gy abdominal X-ray
From the text: (§1) Sixty adult male Sprague Dawley (SD) rats weighing 220–250 g were included in our study. Rats were subjected to 1 week of preliminary conditioning, during which time they received standard pellet rat chow and water ad libitum. They were housed in a temperature-and humidity-controlled environment, two animals per cage, with a 12-h light/12-h dark cycle. The Principles of Laboratory Animal Care (NIH Publication 85e23, revised 1996) were followed. Animal study protocols were approved by the Ethics Committee of the Fourth Military Medical University. The experiment was carried out at the Department of Pharmacy, Tangdu Hospital, Fourth Military Medical University.
(§2) X-ray irradiation was performed using a linear accelerator (Siemens primask) adjusted to provide X-ray irradiation, and carried out at the Department of Radiology and Oncology at the Tangdu Hospital. All of the animals were anesthetized with an intramuscular injection of pentobarbital sodium (100 mg/kg) and subjected to a single dose of 8 Gy abdominal X-radiation. The dose was delivered at a rate of 400 monitor units/min (1100 rad, 116.5 cGy/min, 100 cm source–skin distance) using a conventional radiation source, while the other parts of the body were carefully shielded.
(§3) Rats were randomized into six groups (Groups A–F). […] The remaining rats were subjected to a single dose of 8 Gy of abdominopelvic X-radiation and randomized further into five groups (Groups B–F). […] Briefly, rats were anesthetized with 100 mg/kg pentobarbital sodium, positioned supine, and subjected to a single fraction of 8 Gy delivered at a specific depth through abdominopelvic fields using X-rays at the rate of 0.74 Gy/min, while the other parts of the body were carefully shielded. Radiated rats were allowed to recover from the anesthetic and GLP-2 or Mono-PEG-hGLP-2 was administered by intraperitoneal injection. • Group A: non-X-ray irradiated (control). • Group B: X-ray irradiated. • Group C: pretreated with 3 μg of Mono-PEG-hGLP-2 in 0.3 ml of saline 5 min before X-ray irradiation. • Group D: pretreated with 10 μg of Mono-PEG-hGLP-2 in 0.3 ml of saline 5 min before X-ray irradiation. • Group E: pretreated with 30 μg of Mono-PEG-hGLP-2 in 0.3 ml of saline 5 min before X-ray irradiation. • Group F: pretreated with 30 μg of GLP-2 in 0.3 ml of saline 5 min before X-ray irradiation.
Animals were killed 48 h after X-ray irradiation, and laparotomies were performed. Immediately after the laparotomy, the small intestine (jejunum) was examined and removed. Two-centimeter segments of the jejunum and segments of the intestine showing edema and change in color (purple) were resected. Luminal contents were washed with 0.9% NaCl by injecting saline through the lumen of the small bowel segments. Tissue samples were pinned out on a paraffin block and floated upside down in 10% buffered formalin overnight, dehydrated, and embedded in paraffin. Sections of 4 μm were cut with a Leica sliding microtome (SM 2000R, Nussbach, Germany) and slides, containing a minimum of 10 sections, were stained with hematoxylin and erosin stains. Some representative intestine sections were processed for ultrastructural studies. Sections were evaluated quantitatively and qualitatively in a blinded fashion.
For histological assessment, villous height (from the base to the tip of the villi), crypt height (from the base to the tip of each crypt), and the number of villi per square millimeter was determined based on individual intestinal segments at five separate microscopic fields for each animal. They were recorded as the mean values using ocular micrometer-adapted light microscopy at a magnification of ×100.

[2] = test system: TNF-α; assay: Intestinal TNF-α by sandwich ELISA after X-ray irradiation; type: in vivo, Sprague Dawley (SD) rats; details: SD rats, 8 Gy abdominal X-ray, 30 μg i.p. 5 min before irradiation, small intestine homogenate 48 h after, mean ± S.D., n = 10
From the text: as §1, §2
Rats were randomized into six groups (Groups A–F). […] The remaining rats were subjected to a single dose of 8 Gy of abdominopelvic X-radiation and randomized further into five groups (Groups B–F). […] Briefly, rats were anesthetized with 100 mg/kg pentobarbital sodium, positioned supine, and subjected to a single fraction of 8 Gy delivered at a specific depth through abdominopelvic fields using X-rays at the rate of 0.74 Gy/min, while the other parts of the body were carefully shielded. […]
Malondialdehyde (MDA) levels, glutathione (GSH) content, and the activities of super oxide-dismutase (SOD) and glutathione peroxidase (GPx) were determined in the small intestine using commercial assay kits (Biyuntian Co., China) according to the manufacturer’s protocols. The protein content ratio was determined by Pierce™ BCA Protein Assay Kit (Thermo Fisher Scientific Inc., Rockford, IL, USA). […] Total protein concentrations of tissue homogenates were detected by a Pierce™ BCA Protein Assay Kit (Thermo Scientific; Rockford, IL, USA). The levels of tumor necrosis factor-alpha (TNF-α) (Invitrogen; Carlsbad, CA, USA) and interleukin-2 (IL-2) (Bioo Scientific; Austin, TX, USA) in the tissue samples were determined using commercially available sandwich ELISA kits, according to the protocol recommended by the manufacturer. Results were recorded as the ratio of detected protein (TNF-α, IL-2) (pg/ml) to the amount of total protein (mg/ml).

[3] = test system: oxidative stress markers (MDA, SOD, GSH, GSH-Px) in the small intestine; assay: Intestinal MDA, SOD, GSH and GSH-Px (commercial assay kits) after X-ray irradiation; type: in vivo, Sprague Dawley (SD) rats; details: SD rats, 8 Gy abdominal X-ray, 30 μg i.p. 5 min before irradiation
From the text: as §1, §2, §3
Malondialdehyde (MDA) levels, glutathione (GSH) content, and the activities of super oxide-dismutase (SOD) and glutathione peroxidase (GPx) were determined in the small intestine using commercial assay kits (Biyuntian Co., China) according to the manufacturer’s protocols. The protein content ratio was determined by Pierce™ BCA Protein Assay Kit (Thermo Fisher Scientific Inc., Rockford, IL, USA). All of the values were normalized to total intestinal protein. Small intestine tissue (20 mg) was homogenized in lysis buffer (150 mM NaCl, 0.1% SDS, 0.1% NP-40, 20 mM Tris-HCl pH 7.5) and protease inhibitor cocktail using a Tissue Lyser II homogenizer (Qiagen; Hilden, Germany). Total protein concentrations of tissue homogenates were detected by a Pierce™ BCA Protein Assay Kit (Thermo Scientific; Rockford, IL, USA). The levels of tumor necrosis factor-alpha (TNF-α) (Invitrogen; Carlsbad, CA, USA) and interleukin-2 (IL-2) (Bioo Scientific; Austin, TX, USA) in the tissue samples were determined using commercially available sandwich ELISA kits, according to the protocol recommended by the manufacturer. Results were recorded as the ratio of detected protein (TNF-α, IL-2) (pg/ml) to the amount of total protein (mg/ml).

[4] = GLP-2 in vivo, introduction statement, no reference given; cited from earlier work
From the text: Glucagon-like peptide-2 (GLP-2) is a 33-amino acid peptide derived from the post-translational processing of proglucagon in enteroendocrine L-cells and cerebral neurons. GLP-2 exerts diverse effects related to the regulation of gastrointestinal growth and function, including stimulation of mucosal growth, inhibition of apoptosis, increased nutrient absorption, inhibition of gastric emptying and gastric acid secretion, reduction of intestinal permeability, stimulation of intestinal blood flow, and relaxation of intestinal smooth muscle. GLP-2 h ...

[5] = 30 μg i.p. 5 min before irradiation, jejunum 48 h after, five microscopic fields per animal, ×100, mean ± SD
[6] = 30 μg i.p. in 0.3 ml saline 5 min before irradiation, killed 48 h after
[7] = small intestine 48 h after, mean ± S.D., n = 10

## CC[C@H](C)[C@H](NC(=O)[C@H](Cc1ccccc1)NC(=O)[C@H](CC(=O)O)NC(=O)[C@H](CCCNC(=N)N)NC(=O)[C@H](C)NC(=O)[C@H](C)NC(=O)[C@H](CC(C)C)NC(=O)[C@H](CC(N)=O)NC(=O)[C@H](CC(=O)O)NC(=O)[C@H](CC(C)C)NC(=O)[C@@H](NC(=O)[C@@H](NC(=O)[C@H](CC(N)=O)NC(=O)[C@H](CCSC)NC(=O)[C@H](CCC(=O)O)NC(=O)[C@H](CC(=O)O)NC(=O)[C@H](CO)NC(=O)[C@H](Cc1ccccc1)NC(=O)[C@H](CO)NC(=O)CNC(=O)[C@H](CC(=O)O)NC(=O)[C@H](C)NC(=O)[C@@H](N)Cc1c[nH]cn1)[C@@H](C)O)[C@@H](C)CC)C(=O)N[C@@H](CC(N)=O)C(=O)N[C@@H](Cc1c[nH]c2ccccc12)C(=O)N[C@@H](CC(C)C)C(=O)N[C@H](C(=O)N[C@@H](CCC(N)=O)C(=O)N[C@H](C(=O)N[C@@H](CCCCN)C(=O)N[C@H](C(=O)N[C@H](C(=O)N[C@@H](CC(=O)O)C(N)=O)[C@@H](C)O)[C@@H](C)CC)[C@@H](C)O)[C@@H](C)CC [GLP-2, hGLP-2(1–33) amide, reference compound]
[1]; [5]
  Crypt height: 113.8 ± 10.9 μm
  Height of villi: 229.7 ± 15.9 μm
  Number of villi: 32.1 ± 4.1
[1]; [6]
  Abdominal distention: +
  Architectural disarray (histologic): +
  Diarrhea: +
  Edema (gross): +
  Intestinal dilatation (gross): +
  Mucosal ulceration (gross): +
  Shortening of villi (histologic): +
[1]; i.p. pretreatment 5 min before irradiation, result in words
  Protection against radiation-induced intestinal injury (villi integrity, histology): did not protect mice against radiation-induced intestinal injury
[2]
  Intestinal content of TNF-α: 9.78 ± 1.06 pg/mg prot
[3]; result in words
  Protective effect on intestinal antioxidant enzymes and inflammatory factors: no significant protective effect
[3]; [7]
  Intestinal GSH-Px activity: 246.1 ± 37.8 U/mg prot
  Intestinal SOD activity: 35.27 ± 4.66 U/mg prot
  Intestinal content of GSH: 18.22 ± 3.44 mg/g prot
  Intestinal content of MDA: 5.51 ± 0.47 nmol/mg prot
[4]
  plasma half-life: 7 min
